Reference: PMC10140010 (Investigational New Drugs, 2023)
Several values for one entry are separate records, joined by “and”; a condition that tells them apart may be missing. Equal values may be shown once.

Assays:
OATP1B1 = molecular target: T1, OATP1B1 (Homo sapiens, UniProt Q9Y6L6); experiment: Uptake inhibitor investigation in HEK293 cells expressing transporter; format: in vitro ADME
T1 construct: No ESH6G27; host or cells: HEK293
T1 sequence (Q9Y6L6 1-691): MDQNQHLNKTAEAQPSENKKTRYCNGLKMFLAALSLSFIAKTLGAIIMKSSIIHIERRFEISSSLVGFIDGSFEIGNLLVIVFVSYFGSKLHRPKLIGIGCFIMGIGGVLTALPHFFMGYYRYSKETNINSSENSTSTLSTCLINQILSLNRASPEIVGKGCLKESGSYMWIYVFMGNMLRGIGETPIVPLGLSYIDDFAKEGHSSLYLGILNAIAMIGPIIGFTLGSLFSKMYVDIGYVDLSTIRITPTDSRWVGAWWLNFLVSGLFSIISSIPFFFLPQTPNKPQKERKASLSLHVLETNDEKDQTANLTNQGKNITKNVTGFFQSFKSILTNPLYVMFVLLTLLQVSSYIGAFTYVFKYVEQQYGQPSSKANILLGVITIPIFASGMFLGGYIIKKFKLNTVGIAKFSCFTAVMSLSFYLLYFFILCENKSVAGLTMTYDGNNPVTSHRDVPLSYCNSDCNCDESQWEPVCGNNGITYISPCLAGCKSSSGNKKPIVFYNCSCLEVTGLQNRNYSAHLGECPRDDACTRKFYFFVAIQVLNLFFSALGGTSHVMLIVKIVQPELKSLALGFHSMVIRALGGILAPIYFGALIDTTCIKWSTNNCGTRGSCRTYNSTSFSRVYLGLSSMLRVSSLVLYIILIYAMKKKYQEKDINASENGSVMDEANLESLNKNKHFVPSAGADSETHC
Method: Using a stably transfected cell line of HEK293 expressing transporter OATP1B1, OATP1B3 or OCT2, formal substrate investigation tests were performed for three concentration gradients (30 µM, 3 µM, 0.3 µM) of iruplinalkib.

[1] = Recovery in dialysis device and stability in plasma during dialysis; format: in vitro ADME; conditions: 0.2, 2 and 10 µM, all species
Method: At three test concentrations (0.2, 2 and 10 µM), the plasma protein binding rate of iruplinalkib is as follows (Fig. 3a). […] With the increase of concentration, the protein binding rates of iruplinalkib in rat plasma decreased gradually, showing a certain concentration dependence, and there was no concentration dependence of protein binding rate observed in other species plasma.

ALK^WT = ALK^WT (Homo sapiens, UniProt Q9UM73); experiment: HTRF kinase activity assay; format: biochemical
ALK^WT, sequence (Q9UM73 19-1620): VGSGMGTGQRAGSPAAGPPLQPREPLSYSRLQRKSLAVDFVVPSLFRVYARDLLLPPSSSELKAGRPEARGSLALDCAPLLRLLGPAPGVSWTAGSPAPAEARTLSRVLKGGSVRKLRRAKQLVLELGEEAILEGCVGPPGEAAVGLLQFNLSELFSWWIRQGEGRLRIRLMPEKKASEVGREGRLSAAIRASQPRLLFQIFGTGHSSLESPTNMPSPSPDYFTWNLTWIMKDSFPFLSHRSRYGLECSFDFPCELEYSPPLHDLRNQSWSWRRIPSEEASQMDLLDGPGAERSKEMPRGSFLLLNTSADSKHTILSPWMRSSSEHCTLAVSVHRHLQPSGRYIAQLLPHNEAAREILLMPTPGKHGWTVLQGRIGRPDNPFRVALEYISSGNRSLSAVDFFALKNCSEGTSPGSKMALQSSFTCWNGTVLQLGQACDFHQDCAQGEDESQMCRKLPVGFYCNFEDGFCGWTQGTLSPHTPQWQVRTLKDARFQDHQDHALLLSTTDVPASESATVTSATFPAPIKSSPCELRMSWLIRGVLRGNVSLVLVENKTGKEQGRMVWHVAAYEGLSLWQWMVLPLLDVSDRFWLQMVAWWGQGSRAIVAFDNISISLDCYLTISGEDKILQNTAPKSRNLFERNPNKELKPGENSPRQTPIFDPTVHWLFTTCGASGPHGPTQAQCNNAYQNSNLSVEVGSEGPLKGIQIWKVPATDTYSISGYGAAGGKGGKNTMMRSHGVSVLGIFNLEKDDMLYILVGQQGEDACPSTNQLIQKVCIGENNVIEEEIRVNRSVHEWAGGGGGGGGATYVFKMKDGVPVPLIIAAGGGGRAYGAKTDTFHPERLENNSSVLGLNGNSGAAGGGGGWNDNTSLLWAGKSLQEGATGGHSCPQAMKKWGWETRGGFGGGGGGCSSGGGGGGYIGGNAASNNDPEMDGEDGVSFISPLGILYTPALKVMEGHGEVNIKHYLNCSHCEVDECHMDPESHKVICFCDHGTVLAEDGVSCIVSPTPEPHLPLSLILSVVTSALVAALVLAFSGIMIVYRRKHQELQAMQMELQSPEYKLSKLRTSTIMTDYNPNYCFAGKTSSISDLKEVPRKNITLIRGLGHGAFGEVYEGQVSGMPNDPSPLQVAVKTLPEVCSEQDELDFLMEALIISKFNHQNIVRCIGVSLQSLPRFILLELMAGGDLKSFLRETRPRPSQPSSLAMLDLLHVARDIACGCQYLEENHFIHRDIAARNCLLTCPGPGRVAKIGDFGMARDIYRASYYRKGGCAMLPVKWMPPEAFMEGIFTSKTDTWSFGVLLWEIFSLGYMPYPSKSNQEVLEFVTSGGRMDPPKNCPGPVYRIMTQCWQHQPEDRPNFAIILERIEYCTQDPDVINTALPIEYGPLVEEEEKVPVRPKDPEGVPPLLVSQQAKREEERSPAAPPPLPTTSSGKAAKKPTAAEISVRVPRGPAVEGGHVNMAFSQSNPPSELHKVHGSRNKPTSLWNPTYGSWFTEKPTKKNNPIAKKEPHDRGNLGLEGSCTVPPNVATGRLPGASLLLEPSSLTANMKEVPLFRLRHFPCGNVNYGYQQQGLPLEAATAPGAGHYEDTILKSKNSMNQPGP
Method: After the kinase proteins, Ulight-peptide species, adenosine triphosphate (ATP), and compound were mixed, the reaction was carried out at room temperature. Reactions were quenched by the addition of ethylene diamine tetraacetic acid buffer containing Eu antibody and XL665-streptavidin at the indicated time points. Plate reading was performed using an Envision (Perkin Elmer, MA, USA) multifunctional microplate reader.

[2] = parameters: method as in PMID 35087031; conditions: 180 mg, once daily, patients; cited from earlier work
P-gp/BCRP/MRP2 = experiment: ABC efflux transporter substrate investigation on Caco-2 cells; conditions: for efflux ratio at 0.5 µM / efflux ratio at 5 µM / efflux ratio at 50 µM: human
[3] = human, HEK293 cells expressing OATP1B1, probe ATV (atorvastatin), 1 μM, read-out: Inhibition rate

Structure (SMILES): COc1cc(N2CCC3(CCN(C)CC3)CC2)ccc1Nc1ncc(Cl)c(Nc2ccccc2P(C)(C)=O)n1 [Iruplinalkib]
- inhibition of OATP1B1 uptake activity (OATP1B1; HEK293): can inhibit the uptake activity
- inhibition at 0.5 μM (OATP1B1; [3]): 26.5%
- inhibition at 5 μM (OATP1B1; [3]): 28.9%
- inhibition at 50 μM (OATP1B1; [3]): 67.8%
- remaining rates in plasma after incubation for 5 h [1]: 95–109.3%
- recovery ([1]; CD-1 (mouse), SD (rat), Beagle (dog), plasma, read-out: recovery rates in the dialysis device): 81.8 to 99.9%
- IC50 (ALK^WT): 5.38 nM and < 10 nM
- free steady-state average concentration (Cavg,ss) [2]: 127 nM
- substrate of BCRP (P-gp/BCRP/MRP2; Caco-2): not for breast cancerresistance protein (BCRP)
- substrate of P-gp (P-gp/BCRP/MRP2; Caco-2): transported substrate
- Exhaust Ratio Mean (P-gp/BCRP/MRP2; Iruplinalkib 0.5 µM as substrate, with Ko143 10 µM): 20.95
- Exhaust Ratio Mean (P-gp/BCRP/MRP2; Iruplinalkib 5 µM as substrate, with Ko143 10 µM): 26.14
- Exhaust Ratio Mean (P-gp/BCRP/MRP2; Iruplinalkib 5 µM as substrate, with Verapamil 50 µM): 2.626
- efflux ratio at 0.5 µM (P-gp/BCRP/MRP2; Caco-2): 20.3
- efflux ratio at 5 µM (P-gp/BCRP/MRP2; Caco-2): 84.2
- efflux ratio at 50 µM (P-gp/BCRP/MRP2; Caco-2): 8.02
- efflux ratio at 0.5 µM (P-gp/BCRP/MRP2; Caco-2, with Elacridar 10 µM): 2.81
- efflux ratio at 5 µM (P-gp/BCRP/MRP2; Caco-2, with Elacridar 10 µM): 0.605
- efflux ratio at 50 µM (P-gp/BCRP/MRP2; Caco-2, with Elacridar 10 µM): 0.614
- efflux ratio at 50 µM (P-gp/BCRP/MRP2; Caco-2, with Ko143 10 µM): 9.89
- efflux ratio at 0.5 µM (P-gp/BCRP/MRP2; Caco-2, with Verapamil 50 µM): 3.46
- efflux ratio at 50 µM (P-gp/BCRP/MRP2; Caco-2, with Verapamil 50 µM): 1.95
